According to patent US4684645A, “Benzofused lactams as cholecystokinin antagonists” (Merck & Co., Inc., priority 1985, dated 1987):

How the values were obtained:
[1] = test system: guinea pig gall bladder; assay: CCK induced contraction, isolated guinea pig gall bladder; parameters: species or system guinea pig (male Hartley); conditions: at 26 μM
Protocol: Male Hartley guinea pigs (400-600 g) were sacrificed by decapitation. The whole gall bladder was dissected free from adjacent tissues and cut into two equal halves. The gall bladder strips were suspended along the axis of bile duct in 5 ml organ bath under 1 g tension. The organ bath contained a Kreb's bicarbonate solution (NaCl 118 mM, KCl 4.75 mM, CaCl 2.54 mM, KH2 PO4 1.19 mM, Mg SO4 1.2 mM, NaHCO3 25 mM and dextrose 11 mM) maintained at 32° C. and bubbled with 95% O2 and 5% CO2. Isometric contractions were recorded using Statham (60 g; 0.12 mm) strain gauges and a Hewlett-Packard (77588) recorder. The tissues were washed every 10 minutes for 1 hr to obtain equilibrium prior to the beginning of the study. CCK-8 was added cumulatively to the baths and EC50 's determined using egression analysis. After washout (every 10 minutes for 1 hr), the compound of Formula I was added at least 5 minutes before the addition of CCK-8 and the EC50 of CCK-8 in the presence of the compound of Formula I similarly determined.

[2] = biological target: CCK receptor; assay: 125I-CCK-33 receptor binding (pancreas or brain preparation not given); conditions: concentration dependent inhibition; tissue (rat pancreas or guinea pig brain) not stated; read-out: IC50, inhibition of specific 125I-CCK-33 binding
Protocol: The biological activity of the compounds of Formula I have been evaluated using an ^125 I-CCK receptor binding assay and in vitro isolated tissue preparations.
(§1) CCK-33 was radiolabeled with ^125 I-Bolton Hunter reagent (2000 Ci/mmole) as described by Sankara et al. (J. Biol. Chem. 254: 9349-9351, 1979). Receptor binding was performed according to Innis and Snyder (Proc. Natl. Acad. Sci. 77: 6917-6921, 1980) with the minor modification of adding the additional protease inhibitors, phenylmethane sulfonyl fluoride and o-phenanthroline. The latter two compounds have no effect on the ^125 I-CCK receptor binding assay.
Male Sprague-Dawley rats (200-350 g) were sacrificed by decapitation. The whole pancreas was dissected free of fat tissue and was homogenized in 20 volumes of ice-cold 50 mM, Tris HCl (pH 7.7 at 25° C.) with a Brinkmann Polytron PT 10. The homogenates were centrifuged at 48,000 g for 10 min. Pellets were resuspended in Tris Buffer, centrifuged as above and resuspended n 200 volumes of binding assay buffer (50 mM Tris HCl, pH 7.7 at 25° C., 5 mM dithiothriethel, 0.1 mM bacitracin, 1.2 mM phenylmethane sulfonyl fluoride and 0.5 mM o-phenanthroline). For the binding assay, 25 μl of buffer (for total binding) or unlabeled CCK-8 sulfate to give a final concentration of lμM (for nonspecific binding) or the compounds of Formula I (for determination inhibition of ^125 I-CCK binding) and 25 μl of ^125 I-CCK-33 (30,000-40,000 cpm) were added to 450 μl of the membrane suspensions in microfuge tubes. All assays were run in duplicate or triplicate. […] The supernatant was aspirated and discarded, pellets were counted with a Beckman gamma 5000. […]
Male Hartley guinea pigs (300-500 g) were sacrificed by decapitation and the brains were removed and placed in ice-cold 50 mM, Tris HCl plus 7.58 g/l Tritma-7.4 (pH 7.4 at 25° C.) Cerebral cortex was dissected and used as a receptor source. […] The supernatant was aspirated and discarded, pellets were counted with a Beckman gamma 5000.

[3] = test system: guinea pig ileum; assay: CCK induced contraction, isolated longitudinal muscle of guinea pig ileum; parameters: species or system guinea pig (male Hartley); conditions: at 4.2 μM
Protocol: Longitudinal muscle strips with attached nerve plexus were prepared as described previously (Brit J. Pharmac. 23: 356-363, 1964; J. Physiol. 194: 13-33, 1969). Male Hartley guinea pigs were decapitated and the ileum was removed (10 cm of the terminal ileum was discarded and the adjacent 20 cm piece was used). A piece (10 cm) of the ileum was stretched on a glass pipette. Using a cotton applicator to stroke tangently away from the mesentery attachment at one end, the longitudinal muscle was separated from the underlying circular muscle. The longitudinal muscle was then tied to a thread and by gently pulling, stripped away from the entire muscle. A piece of approximately 2 cm was suspended in 5 ml organ bath containing Krebs solution and bubbled with 95% O2 and 5% CO2 at 37° C. under 0.5 g tension. CCK-8 was added cumulatively to the baths and EC50 values in the presence and absence of compounds of Formula I determined as described in the gall bladder protocol (above).

[4] = test system: CCK receptor (pancreas); assay: CCK Receptor Binding (Pancreas), 125I-CCK-33; parameters: species or system rat (male Sprague-Dawley); conditions: added as protease inhibitors; binding assay buffer
Protocol: as §1
Male Sprague-Dawley rats (200-350 g) were sacrificed by decapitation. The whole pancreas was dissected free of fat tissue and was homogenized in 20 volumes of ice-cold 50 mM, Tris HCl (pH 7.7 at 25° C.) with a Brinkmann Polytron PT 10. The homogenates were centrifuged at 48,000 g for 10 min. Pellets were resuspended in Tris Buffer, centrifuged as above and resuspended n 200 volumes of binding assay buffer (50 mM Tris HCl, pH 7.7 at 25° C., 5 mM dithiothriethel, 0.1 mM bacitracin, 1.2 mM phenylmethane sulfonyl fluoride and 0.5 mM o-phenanthroline). […] The supernatant was aspirated and discarded, pellets were counted with a Beckman gamma 5000.

Row | Compound | IC50 [2] [µM] | effect on the 125I-CCK receptor binding assay [4] | also measured
1 | CCOC(=O)CN1C(=O)C(NC(CCc2ccccc2)C(=O)OCC)CCc2ccccc21 (racemic) [1-Carboethoxymethyl-3-(1-carboethoxy-3-phenyl-1-propyl)-amino homodihydrocarbostyril] |  |  | effect on maximal responses to CCK [1]: without reducing maximal responses; shift of CCK dose response [1]: about 10 times
2 | COC(=O)CN1C(=O)C(NC(CCc2ccccc2)C(=O)OC)CCc2ccccc21 (racemic) [1-Carbomethoxymethyl-3-(1-carbomethoxy-3-phenyl-1-propyl)aminohomodihydrocarbostyril] | 10 |  | 
3 | CCOC(=O)C(CCc1c[nH]c2ccccc12)NC1CCc2ccccc2N(CC(=O)OC(C)(C)C)C1=O (stereo not drawn) [1-t-Butoxycarbonylmethyl-3-(1-carboethoxy-3-(3)indolyl-1-propyl)amino homodihydrocarbostyril] | 0.4 |  | effect on maximal responses to CCK [3]: without affecting maximal responses; shift of CCK dose response to the right [3]: approximately 2.6 fold
4 | CCOC(=O)C(CCc1ccccc1)NC1CCc2ccccc2N(CC(=O)OC(C)(C)C)C1=O (stereo not drawn) [1-t-Butoxycarbonylmethyl-3-(1-carboethoxy-3-phenyl-1-propyl]-amino homodihydrocarbostyril] | 2.4 |  | 
5 | c1cnc2c(c1)ccc1cccnc12 [o-phenanthroline] |  | no effect | 
6 | O=S(=O)(F)Cc1ccccc1 [phenylmethane sulfonyl fluoride] |  | no effect | 
